Experimental data published in paper PMC13339814 (Microbiology Spectrum, 2026).
“Also recorded” adds a separate entry of the source. Each block holds one substance with its values, some of them ahead of it. Where no end group is shown, it is not given here. The star is where a group is joined. pNA = O=[N+]([O-])c1ccc(N*)cc1; Cbz = O=C(OCc1ccccc1)*

Key:
[1] = system: PSP692; experiment: purified PSP692 (1 µM) in 1× phosphate-buffered saline (PBS) at pH 6.0; settings: Segatella copri, 37°C
[2] = system: PSP464; experiment: purified PSP464 (1 µM) in 100 mM glycine-HCl buffer at pH 4.0; settings: Stenotrophomonas maltophilia, 37°C
[3] = system: PSP464; experiment: HRMS analysis of 11-mer gliadin peptide degradation by PSP464; format: in vitro ADME, Stenotrophomonas maltophilia
Method: Gliadin degradation reactions were performed in duplicate for PSP464 activity on the 11-mer and PSP692 activity on the 33-mer at time points of 30 min, 1 h, 2 h, and 4 h. Following incubation, duplicate reactions were pooled prior to downstream processing to minimize technical variability. Reactions were quenched by the addition of trifluoroacetic acid (TFA) in water to a final concentration of 0.1% (vol/vol). To remove intact enzyme and retain low-molecular-weight degradation products, samples were centrifuged through Microcon centrifugal filter units with a 10 kDa MWCO at room temperature for 30 min. The filtrate, containing peptides <10 kDa, was collected and subjected to C18 ZipTip protocol for desalting prior to LC-MS/MS analysis. The elution solvent for desalting was 50% acetonitrile with 0.1% formic acid in water.
Samples were analysed on a Bruker IMPACT HD mass spectrometer in HRMS mode. MS scans were acquired over an m/z range of 50–3,500 at high resolution in positive ion mode. Raw data were processed in MZMine v3.9 ([38]), and the fragment list was exported as an Excel list followed by manual annotation. Chromatograms were generated for identified gliadin-derived peptides across the time course.

[4] = system: human gastrointestinal proteases; experiment: human gastrointestinal proteases; settings: cited from earlier work
[5] = system: PSP692; experiment: purified recombinant PSP692 in pH 6 PBS buffer; settings: Segatella copri, 37°C, up to 4 h

cleaved bond [1]: Pro-pNA
Substance: Cbz-Gly-Pro-pNA

cleaved bond [2]: Phe-pNA
Substance: Cbz-Pro-Pro-Phe-pNA

Substance: GPQQSFPEQEA [11-mer]
intensity of parent peak (m/z ~1,218, +1) after incubation with PSP464 ([3]; all digestion time points, 30 min to 4 h, pooled duplicates): reduced
peptide fragments formed from 11-mer by PSP464 (m/z 998 and 872) ([3]; sequential C-terminal cleavage, sequences assigned from m/z): GPQQSFPEQ and GPQQSFPE

Substance: LQLQPFPQPQLPYPQPQLPYPQPQLPYPQPQPF
not cleaved [4]: evades degradation by human gastrointestinal proteases
fragment found [5]: LQLQP, major, 30 min; also recorded: QPFPQ; also recorded: QLQPFP, major, 30 min
